One experiment concerns HL-60. The experiment can be described thus: Cytotoxicity against human HL60 cells after 48 hrs by WST8 assay. Particulars: HL-60, 48 h. The class given is functional, cell-based.
A further experiment has as its system HeLa. As to the kind of experiment: Cytotoxicity against human HeLa cells after 48 hrs by WST8 assay. Type of experiment: functional, cell-based.

For three molecules, IC50 results are on record in ChEMBL document CHEMBL1157076, “Tetracenoquinocin and 5-iminoaranciamycin from a sponge-derived Streptomyces sp. Sp080513GE-26” (J Nat Prod, 2010).

Structures are written as SMILES.

As for `CO[C@H]1[C@H](O[C@@H]2c3c(cc4c(c3O)C(=N)c3c(O)cccc3C4=O)C(=O)[C@@](C)(O)[C@H]2OC)O[C@@H](C)[C@H](O)[C@H]1O`, the 50% inhibitory concentration (IC50) in the experiment on HL-60 and in the experiment on HeLa was above 200 µM each time.
With `CO[C@H]1[C@H](O[C@@H]2c3c(cc4c(c3O)C(=O)c3c(O)cccc3C4=O)C(=O)[C@@](C)(O)[C@H]2OC)O[C@@H](C)[C@H](O)[C@H]1O` [ARANCIAMYCIN], the results for the IC50 in the experiment with HL-60 and in the experiment on HeLa were 4.1 µM and 2.7 µM, respectively.
The matching figures for `CO[C@H]1[C@H](Oc2cc(C)cc3cc4c(c(O)c23)C(=O)c2c(O)cccc2C4=O)O[C@@H](C)[C@H](O)[C@H]1O` [TETRACENOQUINOCIN]: 210 µM and 120 µM.
